For 24 compounds, IC50 results are on record in patent US10183950B2, “Thienopyrimidine inhibitors of atypical protein kinase C” (Cancer Research Technology Limited, priority 2011, dated 2019).

Structures are written as SMILES.

In one test the target is T1, full-length human PKCι (Homo sapiens, UniProt P41743).
T1 construct: Recombinant, full-length human PKCι expressed in Sf21 insect cells is also commercially available; purchased; host or cells: Sf21 insect cells
T1 sequence (P41743 1-596): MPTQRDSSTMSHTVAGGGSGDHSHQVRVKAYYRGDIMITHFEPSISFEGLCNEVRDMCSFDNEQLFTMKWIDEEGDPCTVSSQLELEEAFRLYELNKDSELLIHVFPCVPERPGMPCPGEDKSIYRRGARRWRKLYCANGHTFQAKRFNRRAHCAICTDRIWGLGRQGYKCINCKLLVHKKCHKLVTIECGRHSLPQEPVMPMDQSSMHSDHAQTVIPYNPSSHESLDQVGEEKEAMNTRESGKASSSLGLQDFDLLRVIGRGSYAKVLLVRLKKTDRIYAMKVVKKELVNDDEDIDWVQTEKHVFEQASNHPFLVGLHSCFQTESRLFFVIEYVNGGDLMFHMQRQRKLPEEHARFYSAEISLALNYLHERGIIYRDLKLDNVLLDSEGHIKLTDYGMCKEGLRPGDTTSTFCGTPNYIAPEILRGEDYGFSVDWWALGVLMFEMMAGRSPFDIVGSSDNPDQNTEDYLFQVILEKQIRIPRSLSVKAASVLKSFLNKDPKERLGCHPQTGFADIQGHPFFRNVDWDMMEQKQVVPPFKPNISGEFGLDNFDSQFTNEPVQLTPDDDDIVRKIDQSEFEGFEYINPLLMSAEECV
Nature of the test: PKCι IC50 IMAP fluorescence polarisation assay, full-length enzyme. The settings on record: full length PKCi at 15 μM ATP; read-out: IC50 in IMAP assay against full length PKCi. The format is biochemical.
Regarding `O=C(Nc1cc(-c2nc(N[C@@H]3CCNC3)c3sccc3n2)ccn1)[C@@H]1CCCO1` [compound 578, (S)-Tetrahydro-furan-2-carboxylic acid {4-[4-((R)-pyrrolidin-3-ylamino)-thieno[3,2-d]pyrimidin-2-yl]-pyridin-2-yl}-amide], the IC50 was in the range of 100 to 1000 nM.

Take `CN1CCN(C(=O)c2ccc(Nc3cc(-c4nc(N[C@@H]5CCNC5)c5sccc5n4)ccn3)cc2)CC1` [compound 613, (4-Methyl-piperazin-1-yl)-(4-{4-[4-((R)-pyrrolidin-3-ylamino)-thieno[3,2-d]pyrimidin-2-yl]-pyridin-2-ylamino}-phenyl)-methanone]: the IC50 lay in the range of 100 to 1000 nM.

In the case of `CC(C)C[C@H](N)CNc1nc(-c2ccncc2)nc2c(Br)csc12` [compound 346, (S)-N*1*-(7-Bromo-2-pyridin-4-yl-thieno[3,2-d]pyrimidin-4-yl)-4-methyl-pentane-1,2-diamine], the IC50 lay in the range of 1000 to 10000 nM.

Regarding `N[C@H](CNc1nc(-c2ccncc2)nc2c(C#CCCF)csc12)Cc1ccccc1` [compound 546, (S)-N*1*-[7-(4-Fluoro-but-1-ynyl)-2-pyridin-4-yl-thieno[3,2-d]pyrimidine], the IC50 fell in the range of 100 to 1000 nM.

`CC(C)(C)c1sc2c(NC[C@@H](N)Cc3ccccc3)nc(-c3ccncc3)nc2c1-c1cn[nH]c1` [compound 437, (S)-N*1*-[6-tert-Butyl-7-(1H-pyrazol-4-yl)-2-pyridin-4-yl-thieno[3,2-d]pyrimidin-4-yl]-3-phenyl-propane-1,2-diamine]: the IC50 fell in the range of 1000 to 10000 nM.

Regarding `N#Cc1cccc(Nc2cc(-c3nc(N[C@@H]4CCNC4)c4sccc4n3)ccn2)c1` [compound 606, 3-{4-[4-((R)-Pyrrolidin-3-ylamino)-thieno[3,2-d]pyrimidin-2-yl]-pyridin-2-ylamino}-benzonitrile], the 50% inhibitory concentration (IC50) is 1000 to 10000 nM.

As for `c1ccc(CNc2cc(-c3nc(N[C@@H]4CCNC4)c4sccc4n3)ccn2)cc1` [compound 598, [2-(2-Benzylamino-pyridin-4-yl)-thieno[3,2-d]pyrimidin-4-yl]-(R)-pyrrolidin-3-yl-amine], the IC50 is 1000 to 10000 nM.

For `CC(C)(C)c1sc2c(NCCN)nc(-c3ccncc3)nc2c1Br` [compound 333, N*1*-(7-Bromo-6-tert-butyl-2-pyridin-4-yl-thieno[3,2-d]pyrimidin-4-yl)-ethane-1,2-diamine], the 50% inhibitory concentration (IC50) lay within 10000 to 40000 nM.

As for `CC(C)(C)c1sc2c(NC[C@H](N)Cc3ccccc3)nc(-c3ccncc3)nc2c1Br` [compound 335, (R)-N*1*-(7-Bromo-6-tert-butyl-2-pyridin-4-yl-thieno[3,2-d]pyrimidin-4-yl)-3-phenyl-propane-1,2-diamine], the IC50 lay in the range of 10000 to 40000 nM.

`Cc1ccc(-c2c(C(C)(C)C)sc3c(NC[C@@H](N)Cc4ccccc4)nc(-c4ccncc4)nc23)s1` [compound 447, (S)-N*1*-[6-tert-Butyl-7-(5-methyl-thiophen-2-yl)-2-pyridin-4-yl-thieno[3,2-d]pyrimidin-4-yl]-3-phenyl-propane-1,2-diamine]: the IC50 lay within 1000 to 10000 nM.

Consider `Cc1sc2c(N[C@@H]3CCNC3)nc(-c3ccncc3)nc2c1C#CC(C)(C)O` [compound 503, 2-Methyl-4-[6-methyl-2-pyridin-4-yl-4-((R)-pyrrolidin-3-ylamino)-thieno[3,2-d]pyrimidin-7-yl]-but-3-yn-2-ol], for which the 50% inhibitory concentration (IC50) is 100 to 1000 nM.

On to `N[C@H](CNc1nc(-c2ccncc2)nc2c(C#CC3(O)CCC3)csc12)Cc1ccccc1` [compound 539, 1-[4-((S)-2-Amino-3-phenyl-propylamino)-2-pyridin-4-yl-thieno[3,2-d]pyrimidin-7-ylethynyl]-cyclobutanol], for which the half-maximal inhibitory concentration (IC50) is less than 100 nM.

As to `N[C@H](CNc1nc(-c2ccncc2)nc2c(C#CCCCO)csc12)Cc1ccccc1` [compound 535, 5-[4-((S)-2-Amino-3-phenyl-propylamino)-2-pyridin-4-yl-thieno[3,2-d]pyrimidin-7-yl]-pent-4-yn-1-ol], the IC50 lay within 1000 to 10000 nM.

In the case of `NC(CNc1nc(-c2ccncc2F)nc2c(-c3cncnc3)csc12)Cc1ccccc1` (stereo in doubt) [compound 422, (R)-N*1*-[2-(3-Fluoro-pyridin-4-yl)-7-pyrimidin-5-yl-thieno[3,2-d]pyrimidin-4-yl]-3-phenyl-propane-1,2-diamine], the IC50 was in the range of 1000 to 10000 nM.

Turning to `CCCNC(=O)c1csc2c(NC[C@@H](N)Cc3ccccc3)nc(-c3ccncc3)nc12` [compound 551, 4-((S)-2-Amino-3-phenyl-propylamino)-2-pyridin-4-yl-thieno[3,2-d]pyrimidine-7-carboxylic acid propylamide], the IC50 lay in the range of 100 to 1000 nM.

On to `N[C@H](CNc1nc(-c2ccncc2F)nc2c(-c3ccccc3)csc12)Cc1ccccc1` [compound 434, (S)-N*1*-[2-(3-Fluoro-pyridin-4-yl)-7-phenyl-thieno[3,2-d]pyrimidin-4-yl]-3-phenyl-propane-1,2-diamine], for which the half-maximal inhibitory concentration (IC50) was in the range of 1000 to 10000 nM.

As to `O=C(Nc1cc(-c2nc(N[C@H]3CNC[C@@H]3O)c3sccc3n2)ccn1)c1cccs1` [compound 627, Thiophene-2-carboxylic acid {4-[4-((3S,4S)-4-hydroxy-pyrrolidin-3-ylamino)-thieno[3,2-d]pyrimidin-2-yl]-pyridin 2-yl}-amide], the IC50 was 1000 to 10000 nM.

For the compound `CNC(=O)c1csc2c(NC[C@@H](N)Cc3ccccc3)nc(-c3ccncc3)nc12` [compound 553, 4-((S)-2-Amino-3-phenyl-propylamino)-2-pyridin-4-yl-thieno[3,2-d]pyrimidine-7-carboxylic acid methylamide], the IC50 was less than 100 nM.

As for `CC(C)(C)NC(=O)Nc1cc(-c2nc(N[C@@H]3CCNC3)c3sccc3n2)ccn1` [compound 582, 1-tert-Butyl-3-{4-[4-((R)-pyrrolidin-3-ylamino)-thieno[3,2-d]pyrimidin-2-yl]-pyridin-2-yl}-urea], the 50% inhibitory concentration (IC50) lay within 1000 to 10000 nM.

On to `NC(CNc1nc(-c2ccncc2F)nc2c(-c3cccc(CO)c3)csc12)Cc1ccccc1` (stereo in doubt) [compound 425, {3-[4-((R)-2-Amino-3-phenyl-propylamino)-2-(3-fluoro-pyridin-4-yl)-thieno[3,2-d]pyrimidin-7-yl]-phenyl}-methanol], for which the IC50 is 1000 to 10000 nM.

Take `NC(CNc1nc(-c2ccncc2F)nc2c(-c3ccoc3)csc12)Cc1ccccc1` (stereo in doubt) [compound 426, (R)-N*1*-[2-(3-Fluoro-pyridin-4-yl)-7-furan-3-yl-thieno[3,2-d]pyrimidin-4-yl]-3-phenyl-propane-1,2-diamine]: the IC50 was in the range of 100 to 1000 nM.

On to `CN1CC[C@@H](Nc2nc(-c3ccnc(NC(=O)c4cccs4)c3)nc3ccsc23)C1` [compound 628, Thiophene-2-carboxylic acid {4-[4-((R)-1-methyl-pyrrolidin-3-ylamino)-thieno[3,2-d]pyrimidin-2-yl]-pyridin-2-yl}-amide], for which the half-maximal inhibitory concentration (IC50) fell in the range of 1000 to 10000 nM.

The same test, now with this note: full length PKCi at 15 μM ATP; read-out: IC50 in IMAP assay against full length PKCi (Activity).
Regarding `CCN1CCc2c(sc3nc(-c4ccncc4)nc(NCCN)c23)C1` [compound 112, N*1*-(7-ethyl-2-pyridin-4-yl-5,6,7,8-tetrahydro-pyrido[4′,3′:4,5]thieno[2,3-d]pyrimidin-4-yl)-ethane-1,2-diamine], the 50% inhibitory concentration (IC50) was 10000 to 40000 nM.

Turning to `CCCCC(=O)N1CCc2c(sc3nc(-c4ccncc4)nc(NCCN)c23)C1` [compound 110, 1-[4-(2-Amino-ethylamino)-2-pyridin-4-yl-5,8-dihydro-6H-pyrido[4′,3′:4,5]thieno[2,3-d]pyrimidin-7-yl]-pentan-1-one], the IC50 was 10000 to 40000 nM.
